Data published in PMC10120310 (Cell Insight, 2022).

Key:
[1] = tested on: oseltamivir-resistant strain (H1N1, H274Y); assay type: cell-based, H1N1 influenza virus (H274Y)
[2] = tested on: oseltamivir-resistant strain (H1N1, H274Y); assay type: cell-based, H1N1 influenza virus (H274Y); remark: listed apart in the source

## CCOC(=O)C1=C[C@@H](OC(CC)CC)[C@H](NC(C)=O)[C@@H](N)C1 [OSP, oseltamivir phosphate]
[1]
  viral NP mRNA level of the resistant strain: no antiviral activity
[2]
  viral NP protein level of the resistant strain: no antiviral activity
